# According to US12077503B2, “Substituted cyclic amides and their use as herbicides” (FMC CORPORATION, priority 2015, dated 2024):
# Key:
# Assay type in all cases: in vivo
# [1] = system: ryegrass, Italian (Italian ryegrass, Lolium multiflorum); assay: Test A preemergence
# Outline: (§1)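 Visual injury, scored on a 0–100 scale relative to untreated controls, was recorded about 10 d after application. Treatments were a preemergence soil spray over planted seeds or a postemergence spray on plants at the one- to two-leaf stage, 2 to 10 cm tall, all in loam soil–sand blend in the greenhouse.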
# [2] = system: giant foxtail (Setaria faberii); assay: Test A preemergence
# Outline: as §1
# [3] = system: Kochia (Kochia scoparia); assay: Test A preemergence
# Outline: as §1
# [4] = system: pigweed (Amaranthus retroflexus); assay: Test A preemergence
# [5] = system: ragweed (common ragweed, Ambrosia elatior); assay: Test A preemergence
# Outline: as §1
# [6] = system: barnyardgrass (Echinochloa crus-galli); assay: Test A preemergence
# Outline: as §1
# [7] = system: ryegrass, Italian (Italian ryegrass, Lolium multiflorum); assay: Test A postemergence; conditions: postemergence, 0 to 100 scale (0 no effect, 100 complete control)
# Outline: as §1
# [8] = system: giant foxtail (Setaria faberii); assay: Test A postemergence; conditions: postemergence, 0 to 100 scale (0 no effect, 100 complete control)
# Outline: as §1
# [9] = system: wheat (Triticum aestivum); assay: Test A postemergence; conditions: postemergence, 0 to 100 scale (0 no effect, 100 complete control)
# Outline: as §1
# [10] = system: Kochia (Kochia scoparia); assay: Test A postemergence; conditions: postemergence, 0 to 100 scale (0 no effect, 100 complete control)
# Outline: as §1
# [11] = system: pigweed (Amaranthus retroflexus); assay: Test A postemergence; conditions: postemergence, 0 to 100 scale (0 no effect, 100 complete control)
# Outline: as §1
# [12] = system: ragweed (common ragweed, Ambrosia elatior); assay: Test A postemergence; conditions: postemergence, 0 to 100 scale (0 no effect, 100 complete control)
# Outline: as §1
# [13] = system: barnyardgrass (Echinochloa crus-galli); assay: Test A postemergence; conditions: postemergence, 0 to 100 scale (0 no effect, 100 complete control)
# Outline: as §1
# [14] = system: Galium (catchweed bedstraw, Galium aparine); assay: Test A postemergence; conditions: postemergence, 0 to 100 scale (0 no effect, 100 complete control)
# Outline: as §1
# [15] = system: blackgrass (Alopecurus myosuroides); assay: Test A postemergence; conditions: postemergence, 0 to 100 scale (0 no effect, 100 complete control)
# Outline: as §1
# [16] = system: corn (Zea mays); assay: Test A postemergence; conditions: postemergence, 0 to 100 scale (0 no effect, 100 complete control)
# Outline: as §1
# [17] = system: sedge, umbrella (small-flower umbrella sedge, Cyperus difformis); assay: Test B flooded paddy test; conditions: Flood, 250 g ai/ha; 0 to 100 scale where 0 is no effect and 100 is complete control; 13 to 15 d
# Outline: (§2)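 Rating scale 0–100 (visual, vs untreated controls) after a 13–15 d greenhouse period; application to the flood layer, 3 cm above soil and maintained; plants at 2-leaf stage when treated.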
# [18] = system: ducksalad (Heteranthera limosa); assay: Test B flooded paddy test; conditions: Flood, 250 g ai/ha; 0 to 100 scale where 0 is no effect and 100 is complete control; 13 to 15 d
# Outline: as §2
# [19] = system: rice (Oryra sativa); assay: Test B flooded paddy test; conditions: Flood, 250 g ai/ha; 0 to 100 scale where 0 is no effect and 100 is complete control; 13 to 15 d
# Outline: as §2
# [20] = system: barnyardgrass (Echinochloa crus-galli); assay: Test B flooded paddy test; conditions: Flood, 250 g ai/ha; 0 to 100 scale where 0 is no effect and 100 is complete control; 13 to 15 d
# Outline: as §2
# [21] = 125 g ai/ha, Preemergence, visual injury after approximately 10 d, 0 to 100 scale where 0 is no effect and 100 is complete control
# [22] = 500 g ai/ha, preemergence, 0 to 100 scale, 0 = no effect, 100 = complete control
# [23] = 125 g ai/ha, visual rating after approx. 10 d
# [24] = 500 g ai/ha, visual injury, approx. 10 d
compound,measurement,setting,value
Cc1ccc(C2CN(C)C(=O)C2C(=O)Nc2ccccc2C(F)(F)F)cc1 (stereo not drawn) [Compound 665],"Plant response rating, Ryegrass, Italian",[1]; [21],20
same,"Plant response rating, Ryegrass, Italian",[1]; [22],50
same,"Plant response rating, Foxtail, Giant",[2]; [21],100
same,"Plant response rating, Foxtail, Giant",[2]; [22],100
same,"Plant response rating, Kochia",[3]; [21],60
same,"Plant response rating, Kochia",[3]; [22],70
same,"Plant response rating, Pigweed",[4]; [21],30
same,"Plant response rating, Pigweed",[4]; [22],30
same,"Plant response rating, Ragweed",[5]; [21],20
same,"Plant response rating, Ragweed",[5]; [22],90
same,"Plant response rating, Barnyardgrass",[6]; [21],90
same,"Plant response rating, Barnyardgrass",[6]; [22],90
same,"Plant response rating, Ryegrass, Italian",[7]; [23],30
same,"Plant response rating, Ryegrass, Italian",[7]; [24],80
same,"Plant response rating, Foxtail, Giant",[8]; [23],90
same,"Plant response rating, Foxtail, Giant",[8]; [24],90
same,"Plant response rating, Wheat",[9]; [23],30
same,"Plant response rating, Wheat",[9]; [24],70
same,"Plant response rating, Kochia",[10]; [23],0
same,"Plant response rating, Kochia",[10]; [24],50
same,"Plant response rating, Pigweed",[11]; [23],0
same,"Plant response rating, Pigweed",[11]; [24],20
same,"Plant response rating, Ragweed",[12]; [23],0
same,"Plant response rating, Ragweed",[12]; [24],30
same,"Plant response rating, Barnyardgrass",[13]; [23],90
same,"Plant response rating, Barnyardgrass",[13]; [24],90
same,"Plant response rating, Galium",[14]; [23],50
same,"Plant response rating, Galium",[14]; [24],50
same,"Plant response rating, Blackgrass",[15]; [23],40
same,"Plant response rating, Blackgrass",[15]; [24],70
same,"Plant response rating, Corn",[16]; [23],40
same,"Plant response rating, Corn",[16]; [24],70
same,"Plant response rating, Sedge, Umbrella",[17],0
same,"Plant response rating, Ducksalad",[18],90
same,"Plant response rating, Rice",[19],25
same,"Plant response rating, Barnyardgrass",[20],70
